In patent publication US12637500B2, “Tumor antigen peptide” (Niigata University, priority 2015, dated 2026):

Experiments:
HLA-A24 = HLA-A24 binding assay (MFI shift on T2-A24 cells); design: species or system human; conditions: for binding to HLA-A24: T2-A24 cells, MFI shift
Procedure: T2-A24 cells, which are HLA-A24-expressing T2 cells, were preincubated in a CO2 incubator at 27° C. overnight. The cells collected were resuspended in Opti-MEM and plated on a round bottom 96 well plate (Corning) with about 1×10^5 cells/200 μL per well. A subject peptide was added at concentrations of 0.33 μM, […], and 10 μM, and incubation was carried out in a CO2 incubator at 27° C. for 3 hours and subsequently at 37° C. for 2.5 hours. Subsequently, the cells were subjected to centrifugation (380 g, 5 minutes) as they were on the plate, resuspended in 100 μL of a C7709A2 monoclonal antibody-producing hybridoma culture supernatant, and incubated on ice for 45 to 60 minutes. The cells were washed with ice-cooled PBS and then incubated together with an FITC-conjugated goat anti-mouse IgG antibody (KPL, Gaithersburg, MD) on ice for 30 minutes. The cells were washed with ice-cooled PBS as they were on the plate, then resuspended in 1% formaldehyde and PBS, and analyzed by a FACScan (BD Biosciences, Mountain View, CA), and the mean fluorescence intensity (MFI) shift (fluorescence increase as a result of stabilization by binding peptide) due to an increase in the amount of stable HLA-A24 molecules was thus measured. A cell treated with nonbinding peptide GK12 (concentration 0 to 10 μM) has a constant MFI and it was used as a negative control.
The MFI shift (AMFI) for a peptide concentration of 1 μM was measured for 26 types of randomly selected peptides of the natural peptides obtained in Example 1 above. A score was also calculated for these peptides using NetMHC3.4, and correlation with ΔMFI was investigated.

human PBMC = assay: CTL induction from PBMC by peptide stimulation; assay type: cell-based; conditions: peptide 10 μg/mL, PBMC of HLA-A24-positive healthy controls, method of Example 5 (1)
Procedure: Peripheral blood was collected using a heparin-containing 50 ML syringe from HLA-A24-positive healthy controls who had given informed consent. The whole blood was layered in a 50 mL tube (Falcon) to which 13 mL of Lymphoprep (Nycomed) had been added, and subjected to centrifugation at 2000 rpm for 30 minutes. A PBMC layer precipitated on the Lymphoprep layer was recovered using a pipette and washed three times with PBS, thus giving human PBMC.
About 3×10^7 cells/plate of the human PBMC separated above and 10 mL of Hepes-modified RPMI1640 medium (Sigma) containing 2-mercaptoethanol (final concentration 55 μM), L-glutamine (final concentration 2 mM), as antibiotics streptomycin (final concentration 100 μg/mL) and penicillin G (final concentration 100 U/mL), and 5% serum component were placed in each well of a […] for cell culture (BECTON DIKINSON), and suspension cultured. PVT1-derived natural antigen peptide of SEQ ID No: 1 (hereinafter referred to as ‘HF10’) or SUV39H2-derived natural antigen peptide of SEQ ID No: 2 (hereinafter referred to as ‘RF8’) were added thereto at a concentration of 10 μg/mL. After culturing was carried out for 2 days, IL-2 was added at a final concentration of 50 U/mL, and culturing was carried out for a further 2 weeks. […]

| Substance | binding to HLA-A24 (HLA-A24) | CTL induction (human PBMC) | MFI of T2-A24 cells treated with peptide (HLA-A24; concentration 0 to 10 μM, negative control peptide) |
| --- | --- | --- | --- |
| VYTYIQSRF [SEQ ID No: 5, DYRK4-derived natural peptide] | high binding |  |  |
| KYVKDFHKF [SEQ ID No: 3, ZNF724P-derived natural peptide] | high binding |  |  |
| IFQGNVHNF [SEQ ID No: 4, SNRNP40-derived natural peptide] | high binding |  |  |
| RYGNVSHF [SEQ ID No: 2, SUV39H2-derived natural antigen peptide] | high binding | A plurality of CTL clones were induced |  |
| GK12: synthetic nonbinding peptide used as negative control for HLA-A24 binding (GYISPYFINTSK) [reference compound] |  |  | constant MFI |
| HWNDTRPAHF [SEQ ID No: 1, PVT1-derived natural antigen peptide] | high binding | A plurality of CTL clones were induced |  |
